From paper PMC8807614 (Scientific Reports, 2022)
Numbered stars: 1 amine (or outer) side, 2 acyl side, 3 side chain; on linkers, the order of the positions; unused ones are H or OH. Side chains are listed from the residue outwards. Peptide text beside a SMILES is read from it. * marks the point of attachment. γGlu = O=C(O)[C@H](CCC(=O)[*:2])N[*:1]; Stearoyl = CCCCCCCCCCCCCCCCCC(=O)*; AEEA = NCCOCCOCC(=O)O

Assay: In vivo plasma metabolite identification (MetID) of GUB03385
Design: species or system DIO mice
Settings: UPLC-Orbitrap MS; for %AUC 30 min: metabolite of GUB03385 in plasma of DIO mice 30 min after GUB03385 1250 nmol/kg SC; for %AUC 60 min: metabolite of GUB03385 in plasma of DIO mice 60 min after GUB03385 1250 nmol/kg SC; for %AUC 120 min: metabolite of GUB03385 in plasma of DIO mice 120 min after GUB03385 1250 nmol/kg SC
Method: Cardiac blood samples from DIO mice dosed with GUB03385 (1250 nmol/kg, SC, n = 10) were collected after 5, 10, 30, 60 and 120 min. Anaesthesia was performed using 2–4% isoflurane/O2 (Attane Vet., ScanVet Animal Health, Fredensborg, Denmark) inhalation. Blood samples were centrifuged (3000 g, 10 min) and plasma supernatants were stored at − 80 °C until MS analysis which was performed by Admescope Ltd (Oulu, Finland). Plasma precipitation was performed with twofold volume of cold acetonitrile containing 1% of formic acid. After centrifugation ([…], 10 min), supernatant was pipetted to 96-well plate and analysed using a Waters Acquity UPLC coupled to a Thermo Q-Exactive Focus Orbitrap MS. Peptides were separated on a Waters CSH C18 (2.1 × 50 mm, […]) column with a linear gradient from 2 to 40% acetonitrile over 3.5 min at a flowrate of 0.5 mL/min. Mass spectra were acquired in positive ionization mode in the mass range 133–2000 m/z with a resolution of 35,000; MS/MS data were acquired at a resolution of 17,500 in AIF mode with a normalized collision energy of 57. Data analysis and profiling of metabolites was performed by Admescope using Thermo XCalibur 4.1.31.9.

CCCCCCCCCCCCCCCCCC(=O)N[C@@H](CCC(=O)NCCOCCOCC(=O)NCCOCCOCC(=O)NCCCC[C@H](NC(=O)CNC(=O)[C@H](CCCNC(=N)N)NC(=O)[C@H](CO)NC(=O)[C@H](C)NC(=O)[C@H](Cc1ccc(O)cc1)NC(=O)[C@H](Cc1c[nH]c2ccccc12)NC(=O)[C@H](C)NC(=O)[C@@H]1CCCN1C(=O)[C@H](CC(N)=O)NC(=O)[C@@H](NC(=O)[C@H](CC(=O)O)NC(=O)[C@@H]1CCCN1C(=O)[C@@H](NC(=O)[C@H](CCCNC(=N)N)NC(=O)[C@@H](NC(=O)[C@H](CCC(=O)O)NC(=O)[C@H](CCSC)NC(=O)[C@H](CO)NC(=O)[C@H](Cc1c[nH]cn1)NC(=O)[C@H](CCCNC(=N)N)NC(=O)[C@H](Cc1c[nH]cn1)NC(=O)[C@@H](NC(=O)[C@H](CCCNC(=N)N)NC(=O)[C@@H](N)CO)[C@@H](C)O)[C@@H](C)CC)[C@@H](C)O)[C@@H](C)CC)C(=O)N[C@@H](CCCNC(=N)N)C(=O)N1CCC[C@H]1C(=O)N[C@H](C(=O)NCC(=O)N[C@@H](CCCNC(=N)N)C(=O)N[C@@H](Cc1ccccc1)C(N)=O)C(C)C)C(=O)O [GUB03385] (H-SRTHRHSMEIRTPDINPAWYASRGK([AEEA-AEEA-γGlu-Stearoyl])RPVGRF-NH2)
time of degradation after subcutaneous administration (DIO mice, 1250 nmol/kg SC, plasma): < 30 min

CCCCCCCCCCCCCCCCCC(=O)N[C@@H](CCC(=O)NCCOCCOCC(=O)NCCOCCOCC(=O)NCCCC[C@H](NC(=O)CNC(=O)[C@H](CCCNC(=N)N)NC(=O)[C@H](CO)NC(=O)[C@H](C)N)C(=O)N[C@@H](CCCNC(=N)N)C(=O)N1CCC[C@H]1C(=O)N[C@H](C(=O)NCC(=O)O)C(C)C)C(=O)O [GUB08247] (H-ASRGK([AEEA-AEEA-γGlu-Stearoyl])RPVG-OH; C-terminus assumed)
%AUC 30 min: 34%
%AUC 60 min: 7%
%AUC 120 min: 1%

CCCCCCCCCCCCCCCCCC(=O)N[C@@H](CCC(=O)NCCOCCOCC(=O)NCCOCCOCC(=O)NCCCC[C@H](NC(=O)CNC(=O)[C@H](CCCNC(=N)N)NC(=O)[C@@H](N)CO)C(=O)N[C@@H](CCCNC(=N)N)C(=O)N1CCC[C@H]1C(=O)N[C@H](C(=O)NCC(=O)N[C@@H](CCCNC(=N)N)C(=O)N[C@@H](Cc1ccccc1)C(N)=O)C(C)C)C(=O)O [GUB08248] (H-SRGK([AEEA-AEEA-γGlu-Stearoyl])RPVGRF-NH2)
%AUC 30 min: 11%
%AUC 60 min: 5%

CCCCCCCCCCCCCCCCCC(=O)N[C@@H](CCC(=O)NCCOCCOCC(=O)NCCOCCOCC(=O)NCCCC[C@H](NC(=O)CNC(=O)[C@H](CCCNC(=N)N)NC(=O)[C@@H](N)CO)C(=O)N[C@@H](CCCNC(=N)N)C(=O)N1CCC[C@H]1C(=O)N[C@H](C(=O)NCC(=O)O)C(C)C)C(=O)O [GUB08249] (H-SRGK([AEEA-AEEA-γGlu-Stearoyl])RPVG-OH; C-terminus assumed)
%AUC 30 min: 18%
%AUC 60 min: 9%
%AUC 120 min: 7%

CCCCCCCCCCCCCCCCCC(=O)N[C@@H](CCC(=O)NCCOCCOCC(=O)NCCOCCOCC(=O)NCCCC[C@H](NC(=O)CNC(=O)[C@H](CCCNC(=N)N)NC(=O)[C@@H](N)CO)C(=O)N[C@@H](CCCNC(=N)N)C(=O)N1CCC[C@H]1C(=O)N[C@H](C(=O)O)C(C)C)C(=O)O [GUB08250] (H-SRGK([AEEA-AEEA-γGlu-Stearoyl])RPV-OH; C-terminus assumed)
%AUC 30 min: 48%
%AUC 60 min: 23%
%AUC 120 min: 14%

CCCCCCCCCCCCCCCCCC(=O)N[C@@H](CCC(=O)NCCOCCOCC(=O)NCCOCCOCC(=O)NCCCC[C@H](NC(=O)CN)C(=O)N[C@@H](CCCNC(=N)N)C(=O)N1CCC[C@H]1C(=O)N[C@H](C(=O)NCC(=O)N[C@@H](CCCNC(=N)N)C(=O)N[C@@H](Cc1ccccc1)C(N)=O)C(C)C)C(=O)O [GUB08251] (H-GK([AEEA-AEEA-γGlu-Stearoyl])RPVGRF-NH2)
%AUC 60 min: 7%
%AUC 120 min: 8%

CCCCCCCCCCCCCCCCCC(=O)N[C@@H](CCC(=O)NCCOCCOCC(=O)NCCOCCOCC(=O)NCCCC[C@H](N)C(=O)N[C@@H](CCCNC(=N)N)C(=O)N1CCC[C@H]1C(=O)N[C@H](C(=O)NCC(=O)N[C@@H](CCCNC(=N)N)C(=O)O)C(C)C)C(=O)O [GUB08252] (H-K([AEEA-AEEA-γGlu-Stearoyl])RPVGR-OH; C-terminus assumed)
%AUC 60 min: 11%
%AUC 120 min: 10%

CCCCCCCCCCCCCCCCCC(=O)N[C@@H](CCC(=O)NCCOCCOCC(=O)NCCOCCOCC(=O)NCCCC[C@H](N)C(=O)N[C@@H](CCCNC(=N)N)C(=O)N1CCC[C@H]1C(=O)N[C@H](C(=O)NCC(=O)O)C(C)C)C(=O)O [GUB08253] (H-K([AEEA-AEEA-γGlu-Stearoyl])RPVG-OH; C-terminus assumed)
%AUC 60 min: 11%
%AUC 120 min: 15%

CCCCCCCCCCCCCCCCCC(=O)N[C@@H](CCC(=O)NCCOCCOCC(=O)NCCOCCOCC(=O)NCCCC[C@H](N)C(=O)N[C@@H](CCCNC(=N)N)C(=O)N1CCC[C@H]1C(=O)N[C@H](C(=O)O)C(C)C)C(=O)O [GUB08254] (H-K([AEEA-AEEA-γGlu-Stearoyl])RPV-OH; C-terminus assumed)
%AUC 60 min: 5%
%AUC 120 min: 11%
